The target of the test is T1, N-terminal 6His-tagged ROCK2 catalytic domain 11-552 (Homo sapiens, UniProt O75116).
T1 construct: N-terminal 6His-tagged ROCK2 catalytic domain 11-552; 6His (N); purchased Dundee University, UK; host or cells: baculovirus expression system
The experiment in a line: ROCK2 binding activity: ROCK2 inhibition, ADP-Glo Kinase Assay. The note with it: 1.25 nM ROCK2, 100 μM long S6 peptide, 20 μM ATP; 1 hour pre-incubation; read-out: ADP-Glo kinase activity assay ROCK2 Category. Format: biochemical. The gist of the method:
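1.25 nM baculovirus-expressed ROCK2 pre-incubated 1 h with compound (1% DMSO), then 100 μM long S6 peptide and 20 μM ATP added for 1 h; 50 mM HEPES pH 7.5, 10 mM Mg acetate, 1 mM DTT. ADP-Glo luminescence; IC50 from four-parameter logistic fit.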
On the technique in general: In ADP-Glo the light output rises with the ADP produced.

Where a name gives a salt, the structure may show the parent alone.

T1 sequence (O75116 11-552): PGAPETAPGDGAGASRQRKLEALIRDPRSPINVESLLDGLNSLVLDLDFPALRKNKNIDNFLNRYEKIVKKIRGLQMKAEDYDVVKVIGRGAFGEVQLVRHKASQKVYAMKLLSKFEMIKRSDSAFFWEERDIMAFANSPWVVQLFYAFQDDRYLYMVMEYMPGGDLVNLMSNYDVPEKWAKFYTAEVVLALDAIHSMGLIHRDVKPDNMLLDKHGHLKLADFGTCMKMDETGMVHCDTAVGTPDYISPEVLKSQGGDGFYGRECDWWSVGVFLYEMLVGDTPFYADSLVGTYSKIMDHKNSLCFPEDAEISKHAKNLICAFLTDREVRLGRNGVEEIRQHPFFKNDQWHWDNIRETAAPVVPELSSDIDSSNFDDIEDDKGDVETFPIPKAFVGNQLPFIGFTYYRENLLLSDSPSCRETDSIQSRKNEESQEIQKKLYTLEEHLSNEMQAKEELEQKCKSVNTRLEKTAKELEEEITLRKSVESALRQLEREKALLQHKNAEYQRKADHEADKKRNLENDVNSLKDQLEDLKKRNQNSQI

Regarding `COc1cc(-c2nc(Nc3ccc4[nH]ncc4c3Cl)n(C)n2)ccc1OCC(=O)NC(C)c1cccnc1` (stereo not drawn) [Example 216], the IC50 was < 300 nM.
The result for `COc1cc(-c2nc(Nc3ccc4[nH]ncc4c3Cl)n(C)n2)ccc1OCC(=O)NC1CCCC1` [Example 217] reads < 300 nM.
In the case of `COc1cc(-c2nc(Nc3ccc4[nH]ncc4c3Cl)n(C)n2)ccc1OCC(=O)N[C@@H](C)C(F)(F)F` [Example 218], the IC50 is < 300 nM.
Take `COc1cc(-c2nc(Nc3ccc4[nH]ncc4c3Cl)n(C)n2)ccc1OCC(=O)N[C@H](C)C(F)(F)F` [Example 219]: the IC50 is < 300 nM.
Regarding `CS(=O)(=O)NCCOc1ccc(-c2nnc(Nc3ccc4[nH]ncc4c3)[nH]2)cc1` [Example 220, N-[2-[4-[5-(1H-Indazol-5-ylamino)-4H-1,2,4-triazol-3-yl]phenoxy]ethyl]methanesulfonamide], the IC50 lay within 300 to 3000 nM.
The result for `CC(=O)NCCOc1ccc(-c2nnc(Nc3ccc4[nH]ncc4c3)[nH]2)cc1` [Example 221] reads 300 to 3000 nM.
The result for `c1ccc(NCCOc2ccc(-c3nnc(Nc4ccc5[nH]ncc5c4)[nH]3)cc2)nc1` [Example 222] reads < 300 nM; that for `CC(C)CC(=O)NCCOc1ccc(-c2nnc(Nc3ccc4[nH]ncc4c3)[nH]2)cc1` [Example 223], 3000 to 10000 nM; that for `CC(C)NC(=O)NCCOc1ccc(-c2nnc(Nc3ccc4[nH]ncc4c3)[nH]2)cc1` [Example 224, 1-[2-[4-[5-(1H-indazol-5-ylamino)-4H-1,2,4-triazol-3-yl]phenoxy]ethyl]-3-isopropyl-urea dihydrochloride], < 300 nM.
The result for `O=C(NCCOc1ccc(-c2nnc(Nc3ccc4[nH]ncc4c3)[nH]2)cc1)N1CCCC1` [Example 225] reads 300 to 3000 nM.
For the compound `CC(C)NS(=O)(=O)COc1ccc(-c2n[nH]c(Nc3ccc4[nH]ncc4c3)n2)cc1` [Example 226, 1-[4-[5-(1H-indazol-5-ylamino)-4H-1,2,4-triazol-3-yl]phenoxy]-N-isopropyl-methanesulfonamide], the IC50 is < 300 nM.
The result for `COc1cc(-c2nc(Nc3ccc4[nH]ncc4c3)n[nH]2)ccc1OCC(=O)NC1CN(C(C)=O)C1` [Example 227, N-(1-acetylazetidin-3-yl)-2-[4-[5-(1H-indazol-5-ylamino)-4H-1,2,4-triazol-3-yl]-2-methoxy-phenoxy]acetamide] reads 300 to 3000 nM; that for `NC1(COc2ccc(-c3nnc(Nc4ccc5[nH]ncc5c4)[nH]3)cc2)COC1` [Example 228, N-[5-[4-[(3-aminooxetan-3-yl)methoxy]phenyl]-4H-1,2,4-triazol-3-yl]-1H-indazol-5-amine], 300 to 3000 nM.
The result for `CCNC1(COc2ccc(-c3nnc(Nc4ccc5[nH]ncc5c4)[nH]3)cc2)COC1` [Example 229, N-[5-[4-[[3-(ethylamino)oxetan-3-yl]methoxy]phenyl]-4H-1,2,4-triazol-3-yl]-1H-indazol-5-amine] reads 300 to 3000 nM.
In the case of `CC(C)NCCOc1ccc(-c2n[nH]c(Nc3ccc4[nH]ncc4c3)n2)cc1` [Example 230, N-[5-[4-[2-(isopropylamino)ethoxy]phenyl]-4H-1,2,4-triazol-3-yl]-1H-indazol-5-amine] it was 300 to 3000 nM.
`COc1cc(-c2nc(Nc3ccc4[nH]ncc4c3)n(C)n2)ccc1COC(=O)NC1CCNC1` (stereo not drawn) [Example 231, [4-[5-(1H-indazol-5-ylamino)-1-methyl-1,2,4-triazol-3-yl]-2-methoxy-phenyl]methyl N-pyrrolidin-3-ylcarbamate]: the IC50 is < 300 nM.
In the case of `COc1cc(-c2nc(Nc3ccc4[nH]ncc4c3)nn2C)ccc1OCC(=O)NC(C)C` [Example 232, 2-[4-[5-(1H-indazol-5-ylamino)-2-methyl-1,2,4-triazol-3-yl]-2-methoxy-phenoxy]-N-isopropyl-acetamide] it was 300 to 3000 nM; in that of `COc1cc(-c2nc(Nc3ccc4[nH]nc(C)c4c3)n(C)n2)ccc1OCC(=O)NC(C)C` [Example 233, N-isopropyl-2-[2-methoxy-4-[1-methyl-5-[(3-methyl-1H-indazol-5-yl)amino]-1,2,4-triazol-3-yl]phenoxy]acetamide], < 300 nM; in that of `Cn1nc(-c2ccc3c(c2)OCCC3O)nc1Nc1ccc2[nH]ncc2c1Cl` (stereo not drawn) [Example 234, 7-[5-[(4-chloro-1H-indazol-5-yl)amino]-1-methyl-1,2,4-triazol-3-yl]chroman-4-ol], 300 to 3000 nM.
The result for `COc1cc(-c2nc(Nc3ccc4[nH]ncc4c3)n(C)n2)ccc1OCC(=O)NC(C)C(F)(F)F` (stereo not drawn) [Example 235, 2-[4-[5-(1H-indazol-5-ylamino)-1-methyl-1,2,4-triazol-3-yl]-2-methoxy-phenoxy]-N-(2,2,2-trifluoro-1-methyl-ethyl)acetamide] reads < 300 nM; that for `CC(C)C(=O)N1CCc2cc(-c3nc(Nc4ccc5[nH]ncc5c4Cl)n(C)n3)ccc2C1` [Example 236, 1-[6-[5-[(4-chloro-1H-indazol-5-yl)amino]-1-methyl-1,2,4-triazol-3-yl]-3,4-dihydro-1H-isoquinolin-2-yl]-2-methyl-propan-1-one], < 300 nM.
On to `Cn1nc(-c2ccc3c(c2)CCNC3)nc1Nc1ccc2[nH]ncc2c1Cl` [Example 237, 4-Chloro-N-[2-methyl-5-(1,2,3,4-tetrahydroisoquinolin-6-yl)-1,2,4-triazol-3-yl]-1H-indazol-5-amine], for which the IC50 was in the range of 300 to 3000 nM.
The result for `Cn1nc(-c2ccc3c(c2)CCN(C(=O)C2CC2)C3)nc1Nc1ccc2[nH]ncc2c1Cl` [Example 238] reads < 300 nM; that for `Cn1nc(-c2ccc3c(c2)CCN(C(=O)CNCC(F)(F)F)C3)nc1Nc1ccc2[nH]ncc2c1Cl` [Example 239], < 300 nM; that for `COc1cc(-c2nc(Nc3ccc4[nH]ncc4c3)n(C)n2)ccc1C(=O)NCC(F)(F)F` [Example 240, 4-[5-(1H-indazol-5-ylamino)-1-methyl-1,2,4-triazol-3-yl]-2-methoxy-N-(2,2,2-trifluoroethyl)benzamide], < 300 nM.
For the compound `COCCNC(=O)COc1ccc(-c2nc(Nc3ccc4[nH]ncc4c3Cl)n(C)n2)cc1OC` [Example 242, 2-[4-[5-[(4-chloro-1H-indazol-5-yl)amino]-1-methyl-1,2,4-triazol-3-yl]-2-methoxy-phenoxy]-N-(2-methoxyethyl)acetamide], the IC50 is < 300 nM.
In the case of `CC(=O)N1CCc2cc(-c3nc(Nc4ccc5[nH]ncc5c4C4CC4)n(C)n3)ccc2C1C` (stereo not drawn) [Example 248, 1-[6-[5-[(4-cyclopropyl-1H-indazol-5-yl)amino]-1-methyl-1,2,4-triazol-3-yl]-1-methyl-3,4-dihydro-1H-isoquinolin-2-yl]ethanone] it was < 300 nM.
Turning to `CCN1CCc2cc(-c3nc(Nc4ccc5[nH]ncc5c4C4CC4)n(C)n3)ccc2C1C` (stereo not drawn) [Example 249, 4-cyclopropyl-N-[5-(2-ethyl-1-methyl-3,4-dihydro-1H-isoquinolin-6-yl)-2-methyl-1,2,4-triazol-3-yl]-1H-indazol-5-amine], the IC50 lay in the range of 3000 to 10000 nM.
`CC(C)NC(=O)COc1ccc(-c2nc(Nc3ccc4[nH]ncc4c3)n(C)n2)cc1Cl` [Example 250, 2-[2-chloro-4-[5-(1H-indazol-5-ylamino)-1-methyl-1,2,4-triazol-3-yl]phenoxy]-N-isopropyl-acetamide]: the IC50 is < 300 nM.
The result for `CCNC(=O)c1ccc(-c2nc(Nc3ccc4[nH]ncc4c3C3CC3)n(C)n2)cc1` [Example 251, 4-[5-[(4-cyclopropyl-1H-indazol-5-yl)amino]-1-methyl-1,2,4-triazol-3-yl]-N-ethyl-benzamide] reads < 300 nM; that for `CCc1c(Nc2nc(-c3ccc(C(=O)NC4CC4)c(OC)c3)nn2C)ccc2[nH]ncc12` [Example 252, N-cyclopropyl-4-[5-[(4-ethyl-1H-indazol-5-yl)amino]-1-methyl-1,2,4-triazol-3-yl]-2-methoxy-benzamide], < 300 nM; that for `CCNC(=O)c1ccc(-c2nc(Nc3ccc4[nH]ncc4c3Cl)n(C)n2)cc1` [Example 253], < 300 nM.
In the case of `CCNC(=O)c1ccc(-c2nc(Nc3ccc4[nH]ncc4c3Cl)n(C)n2)cc1Cl` [Example 254] it was 300 to 3000 nM.
The result for `Cn1nc(-c2ccc(C(=O)NC3(C)CC3)c(Cl)c2)nc1Nc1ccc2[nH]ncc2c1Cl` [Example 255] reads 300 to 3000 nM; that for `Cn1nc(-c2ccc(C(=O)NC(C)(C)C)c(Cl)c2)nc1Nc1ccc2[nH]ncc2c1Cl` [Example 256], < 300 nM; that for `Cn1nc(-c2ccc(C(=O)NC(C)(C)C)cc2)nc1Nc1ccc2[nH]ncc2c1Cl` [Example 257], < 300 nM.
Regarding `Cn1nc(-c2ccc(C(=O)NC3(C)CC3)cc2)nc1Nc1ccc2[nH]ncc2c1Cl` [Example 258], the IC50 was < 300 nM.
In the case of `CN1CC(NC(=O)c2ccc(-c3nc(Nc4ccc5[nH]ncc5c4Cl)n(C)n3)cc2Cl)C1` [Example 259] it was 3000 to 10000 nM.
The result for `Cn1nc(-c2ccc(C(=O)Nc3cccnc3)cc2)nc1Nc1ccc2[nH]ncc2c1Cl` [Example 260] reads < 300 nM.
The result for `Cn1nc(-c2ccc(C(=O)Nc3ccccc3)cc2)nc1Nc1ccc2[nH]ncc2c1Cl` [Example 261] reads < 300 nM; that for `CCNC(=O)c1ccc(-c2nc(Nc3ccc4[nH]ncc4c3Cl)n(C)n2)c(C)c1` [Example 262], < 300 nM.
Consider `CN1CC(NC(=O)c2ccc(-c3nc(Nc4ccc5[nH]ncc5c4Cl)n(C)n3)cc2)C1` [Example 263], for which the IC50 was 300 to 3000 nM.
The result for `COc1cc(-c2nc(Nc3ccc4[nH]ncc4c3Cl)n(C)n2)ccc1C(=O)NC1(C)CC1` [Example 264] reads < 300 nM.
Consider `CCNC(=O)c1ccc(-c2nc(Nc3ccc4[nH]ncc4c3Cl)n(C)n2)c(Cl)c1` [Example 265], for which the IC50 was < 300 nM.
In the case of `Cn1nc(-c2ccc(C(=O)Nc3ccccn3)cc2)nc1Nc1ccc2[nH]ncc2c1Cl` [Example 266] it was < 300 nM.

(Values after patent US11497751B2, “Modulators of Rho-associated protein kinase” (Redx Pharma PLC, priority 2018, dated 2022).)
